Test results reported in patent publication US7001770B1, “Calpain inhibitors and their applications” (priority 1998, dated 2006).
Values joined by “and” are separate entries in the source; they are usually repeats but may differ in a detail not shown here. Equal entries are not always repeated. Square brackets hold non-standard residues; d marks the D form. Peptide text beside a SMILES is read from it. Nle = CCCC[C@H](N)C(=O)O

Tests used:
Format in all cases: cell-based
DLD1 cells = experiment: Apoptosis by annexin V-FITC staining, flow cytometry; settings: for Percent Annexin V Positive Staining: 26 hours post treatment
Description: (§1) P53 was administered to the cells by the use of the replication defective adenoviral vector ACN53 described in Wills, et al., supra. The effect of varying concentrations of rAd-p53 (from […] to 2×10^9 rAd-p53 particles/ml of solution) was investigated in combination with CI-1 in a range of 5–20 μm. The effects of individual and combination treatment was determined in the in DLD1, RKO, HLF and SK-Hep1 cells was investigated in substantial accordance with the teaching of Examples 2 and 3 herein. The percentage of apoptotic cells was determined at 17 hours post treatment (with the exception of U87 cells (24 hours) and HeLa cells (68 hours)) with annexin V positive staining. The results are presented in graphical format in FIG. 3 of the attached drawings. In brief, the results were as follows:
(§2) The effect of an inhibitor of μ-calpains, CI-1 (N-acetyl-leu-leu-norleucinal), was investigated for its ability to enhance p53 mediated apoptosis in tumor cell lines having p53+ and p53− status listed in Table1. Each cell line was treated with 5–50 μM CI-1 for 17–26 hours. To detect a G0/G1 block, bromodeoxyuridine (BrdU) incorporation followed by flow cytometric analysis was done 17 hours post-treatment as described in Example 4 herein. […] The results of these experiments are presented in FIGS. 1 and 2 of the attached drawings. In FIG. 1, each point on the graph represents percentage annexin V positive after background percentage (DMF alone) was subtracted.
(§3) An aliquot containing approximately 1×10^6 cells of each type was placed in a T-225 flask. The effect of varying concentrations of rAd-p53 (from 1×10^7 to 2×10^9ACN53 particles/ml of solution) was investigated in combination with CI-1 in a range of 5–20 μM. In each instance, the cell line was infected with 1×10^7–1×10^9 particles/ml of cell culture with the ACN53 using the empty cassette virus (ZZCB) as a control. In each instance, the cells were exposed to the virus for a period of one hour. At the end of this time, the virus was washed off the from the cells and fresh media containing an appropriate concentration of CI-1 was added.
(§4) CI-1 was obtained from Boehringer-Mannheim Biochemicals (Indianapolis, Ind.). The CI-1 containing media was prepared as follows. CI-1 was diluted in dimethylformamide (DMF) to a concentration of 33.3 μM/μl. The CI-1 solution in DMF was added to achieve a final concentration in the media of 5 or 10 μM final concentration of CI-1. An equivalent volume of DMF alone was added to the control cells. Calpain inhibitor 2, N-acetyl-leu—leu-methioninal (Boehringer Mannheim) was added to cell lines at 5–50 μM final concentration with or without rAd-p53 for 26 hours.
(§5) At a time of 17 (or 26 hours) post infection, the percentage of cells undergoing apoptosis was determined by convential apoptotic markers. Apoptosis was monitored visually by observing blebbed nuclei characteristic of apoptosis, by propidium iodide staining (using propidium iodide commercially available from Molecular Probes, Inc.) followed by flow cytometric analysis to look for subgenomic populations of cells, and by labeling cells with annexin V-FITC (commercially available from Boehringer Mannheim) in substantial accordance with the instructions provided by the manufacturer, followed by flow cytometric analysis on a FACScan Flow Cytometer (commercially available from Becton Dickinson).

SK-Hep1 cells = experiment: as above; settings: for Percent Annexin V Positive Staining: 26 hours post treatment
Description: as §1, §2, §3, §4, §5

RKO cells = experiment: as above; settings: for Percent Annexin V Positive Staining: 26 hours post treatment
Description: as §1, §2, §3, §4, §5

HeLa cells = experiment: as above; settings: for Percent Annexin V Positive Staining: 44 hours post treatment
Description: as §1, §2, §3, §4, §5

[1] = tested on: p53 levels in cell lines with endogenous wildtype and mutated p53 status; experiment: Western blot of p53 levels; settings: in response to calpain inhibitor 1 (FIG. 5)
U87 cells = experiment: Apoptosis by annexin V-FITC staining, flow cytometry
Description: as §1, with “The percentage of apoptotic cells was determined at 17 hours post treatment (with the exception of U87 cells (24 hours) and HeLa cells (68 hours)) with annexin V positive staining.” left out
as §2, with “Each cell line was treated with 5–50 μM CI-1 for 17–26 hours.” left out
An aliquot containing approximately 1×10^6 cells of each type was placed in a T-225 flask. The effect of varying concentrations of rAd-p53 (from 1×10^7 to 2×10^9ACN53 particles/ml of solution) was investigated in combination with CI-1 in a range of 5–20 μM. […]
Apoptosis was monitored visually by observing blebbed nuclei characteristic of apoptosis, by propidium iodide staining (using propidium iodide commercially available from Molecular Probes, Inc.) followed by flow cytometric analysis to look for subgenomic populations of cells, and by labeling cells with annexin V-FITC (commercially available from Boehringer Mannheim) in substantial accordance with the instructions provided by the manufacturer, followed by flow cytometric analysis on a FACScan Flow Cytometer (commercially available from Becton Dickinson).

## CCCC[C@@H](C=O)NC(=O)[C@H](CC(C)C)NC(=O)[C@H](CC(C)C)NC(C)=O [CI-1, N-acetyl-leu-leu-norleucinal] (Ac-Leu-Leu-[Nle]-aldehyde)
DLD1 cells; 10 μM CI-1, 17 hours post treatment
  Percentage of Cells Undergoing Apoptosis: 15%
DLD1 cells; CI-1 10 μM
  Percent Annexin V Positive Staining: 15%
DLD1 cells; CI-1 20 μM
  Percent Annexin V Positive Staining: 17%
DLD1 cells; CI-1 30 μM
  Percent Annexin V Positive Staining: 17%
DLD1 cells; CI-1 50 μM
  Percent Annexin V Positive Staining: 18%
SK-Hep1 cells; CI-1 10 μM
  Percent Annexin V Positive Staining: 32%
SK-Hep1 cells; CI-1 20 μM
  Percent Annexin V Positive Staining: 66%
SK-Hep1 cells; CI-1 30 μM
  Percent Annexin V Positive Staining: 73%
SK-Hep1 cells; CI-1 40 μM
  Percent Annexin V Positive Staining: 75%
SK-Hep1 cells; CI-1 50 μM
  Percent Annexin V Positive Staining: 73%
SK-Hep1 cells; [5 μM] CI-1, 17 hours post treatment
  Percentage of Cells Undergoing Apoptosis: 11%
RKO cells; CI-1 10 μM
  Percent Annexin V Positive Staining: 13%
RKO cells; CI-1 20 μM
  Percent Annexin V Positive Staining: 52% and 33%
RKO cells; CI-1 50 μM
  Percent Annexin V Positive Staining: 57%
RKO cells; [20 μM] CI-1, 17 hours post treatment
  Percentage of Cells Undergoing Apoptosis: 13%
HeLa cells; 10 μM CI-1, 68 hours post treatment
  Percentage of Cells Undergoing Apoptosis: 8.3%
HeLa cells; CI-1 10 μM
  Percent Annexin V Positive Staining: 28%
HeLa cells; CI-1 20 μM
  Percent Annexin V Positive Staining: 48%
HeLa cells; CI-1 30 μM
  Percent Annexin V Positive Staining: 55%
HeLa cells; CI-1 40 μM
  Percent Annexin V Positive Staining: 67%
HeLa cells; CI-1 50 μM
  Percent Annexin V Positive Staining: 80%
HeLa cells; higher concentrations of CI-1, HeLa have E6 mediated degradation of p53
  induction of apoptosis: induced to apoptosis
[1]
  increase in p53 levels: 2–5 ×
U87 cells; 10 μM CI-1, 24 hrs
  Percentage of Cells Undergoing Apoptosis: 41%
U87 cells; 20 μM CI-1 treatment, increase from 5%
  percentage of apoptotic cells: 72%
U87 cells; calpain inhibitor 1, 10 μM for 4 days
  cells annexin V-FITC positive: ~100%
